Common to all, as to format: in vivo, mouse
Assay [1] relates to pregnant mice treated with aPL-IgG. In words: aPL antibody-induced pregnancy loss, murine pregnancy model of APS.
A further assay relates to DBA/2-mated CBA/J mice. In words: Fetal resorption in DBA/2-mated CBA/J mice, murine model of spontaneous recurrent miscarriage. The protocol:
Female mice were allowed to mate with previously isolated male mice. The groups in the present experiment comprised 7-20 animals, one group of DBA/2-mated CBA/J mice and two controls (CBA×Balb/c and Balb/c×Balb/c). After mating, the females were checked daily until the presence of a vaginal plug was confirmed (this time point was then defined as day 0.5 of pregnancy). The mice were sacrificed 15 days post-conception. Uteri were dissected and the frequency of fetal resorption was determined as the number of resorptions divided by total number of formed fetuses and resorptions. Resorption sites, resulting from the loss of a previously viable fetus, are easily identifiable by visual inspection.
Mice were mated as described above, and sacrificed on day 8.5 post-conception. Sections of decidual tissue from CBA/J×Balb/c were incubated with an antibody to mouse C3, and followed by rabbit anti-goat IgG conjugated with HRP (horseradish peroxidase) and staining.
This experiment was carried out to investigate if blockade of complement activation would prevent fetal loss in the murine model of miscarriage. In these experiments, DBA/2-mated CBA/J pregnant mice were treated with three different targeted inhibitors of complement activation.
Crry-Ig. Complement receptor 1-related gene/protein y (Crry) inhibits C3 convertase activity. The Crry used in the experiments was Crry-Ig, which is a recombinant soluble form of Crry fused to the hinge, CH2, and CH3 domains of mouse IgG1, prepared as described in Quigg et al., J Immunol 1998;160:4553-4560. Crry-Ig blocks activation of C3 by both the classical and alternative pathways, thereby preventing all complement effector activities. Pregnant DBA/2-mated CBA/J mice were treated with 3 mg Crry-Ig, administered i.p. on days 8, 10 and 12.
Monoclonal anti-C5 mAb. Also tested was an antibody against C5, which prevents the cleavage of C5. […]
To inhibit factor B, mice were injected on days 7 through 13 of pregnancy with mAb1379 (2 mg intraperitoneally) or with murine IgG as a control. Fetal resorption frequency was calculated on day 15 of pregnancy.

Assay [2] deals with C3 deposition in decidual tissue. The experiment in a line: Immunohistochemistry of deciduas (C3, human IgG, granulocytes). As to conditions: aPL-IgG treated mice that also received the agent.
Source text: (§1) Immunohistochemistry. […] Sections were counterstained with hematoxylin.
as §1

[3] abbreviates: mice given aPL-IgG 10 mg i.p. days 8 and 12 plus the agent.

Results on 1 substance are retold here after patent US20070123466A1, “Method of treating recurrent miscarriages” (New York Society for the Ruptured and Crippled Maintaining …, priority 2003, published 2007).

“AcPhe(L-ornithine-Pro-D-cyclohexylalanine-Trp-Arg) [C5aR-AP]”: in assay [1] (setting [3]), the “aPL antibody-induced growth restriction” value is listed as “prevented” and the “aPL antibody-induced pregnancy loss (fetal resorption)” value is reported as “prevented”. For the same substance, the “frequency of fetal resorption in the absence of aPL antibodies” value in assay [1] (mice that received NH-IgG / no aPL antibodies) is on record as “had no effect”. Further, the fetal resorption rate result with DBA/2-mated CBA/J mice (DBA/2-mated CBA/J mice, 100 μg i.p. on day 8, sacrificed day 15) is recorded as “about 7%”. In addition, the “fetal loss / pregnancy loss” value with DBA/2-mated CBA/J mice (DBA/2-mated CBA/J mice, inhibitor i.p. during pregnancy, fetal resorption day 15) is reported as “prevented fetal loss”. Further, in the assay on DBA/2-mated CBA/J mice (uterus from treated DBA/2-mated CBA/J mouse, day 15), the “fetuses and resorptions in uterus” value was 6 larger fetuses with decidua and no resorptions. Moreover, in assay [2], the “C3 deposition in decidual tissue” value is reported as “minimal C3 deposition” and the “neutrophil infiltration / inflammation in deciduas” value is given as “no evidence of inflammation”.
